{
  "source": "patent US20140309192A1",
  "about": "“MODULATORS OF THE G PROTEIN-COUPLED MAS RECEPTOR AND THE TREATMENT OF DISORDERS RELATED THERETO” (ARENA PHARMACEUTICALS, INC., priority 2011, published 2014)",
  "data": [
    {"target": "T1, human Mas receptor (Homo sapiens, UniProt P04201)", "T1 construct": "expressed in transfected cells; host or cells: HEK293 (ATCC CRL-1573)", "T1 sequence (P04201 1-325)": "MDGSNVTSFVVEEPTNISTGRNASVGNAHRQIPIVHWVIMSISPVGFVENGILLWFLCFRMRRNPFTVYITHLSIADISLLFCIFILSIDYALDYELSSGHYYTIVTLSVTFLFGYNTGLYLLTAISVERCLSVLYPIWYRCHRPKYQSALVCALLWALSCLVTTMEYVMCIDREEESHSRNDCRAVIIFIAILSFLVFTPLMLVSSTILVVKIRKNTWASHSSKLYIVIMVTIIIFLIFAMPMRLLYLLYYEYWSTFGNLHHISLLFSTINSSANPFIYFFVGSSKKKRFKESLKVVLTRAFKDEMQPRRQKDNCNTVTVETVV", "assay": "HTRF IP1 assay, HEK293 cells expressing human Mas receptor", "type": "cell-based", "conditions": "HTRF IP1 assay, human Mas receptor (Table B.2); read-out: IC50", "description": "(§1) Human and rat Mas receptors were either transiently or stably expressed in HEK293 cells. For transient transfections, human or rat Mas in pHM6 vector were transfected into HEK293 cells using Lipofectamine® (Invitrogen #18324-012). HEK293 cells transfected with empty pHM6 vector were used as a control. For generation of stable cell lines, cDNA expression plasmids encoding human or rat Mas genes and the neo^r gene were transfected into HEK293 cells (ATCC# CRL-1573) using Lipofectamine® (Invitrogen) according to the manufacturer's instructions. Stable receptor expressing pools were then generated over 3 weeks by standard techniques in the presence of 500 μg/mL Geneticin® (Gibco). Individual receptor stable pools were dilution cloned using standard techniques and clones were comparatively evaluated in inositol phosphate accumulation assays. Preferred clones were banked and cultured as needed. HEK293 cells were used as controls. The 384 well IP-One HTRF® Assay (Cisbio #62P1APEJ) was performed as described by the manufacturer's protocol. Cells were plated in at 100,000 cells per well in 15 μL DMEM (Gibco #11960) and incubated in a CO2 incubator at 37° C. for 2 h. Five μL of compounds diluted in 2× stimulation buffer plus 0.4% BSA (Sigma (#A3059) were added to each well and serial diluted IP1 standards (Cisbio #62IP1CDA) were also added to corresponding wells at this step. After the cells were incubated for 4 h in a CO2 incubator at 37° C., d2-labeled IP1 and cryptate-labeled anti-IP1 monoclonal antibody diluted in lysis buffer were added sequentially in 10 μL per well and the assay plates were kept in the dark at room temperature overnight. Ratiometric measurements of fluorescence emission at 665 nm and 620 nm were obtained using a Pherastar fluorometer (BMG Labtech). IP1 levels in each well were calculated according to the standard curves on each plate. IC50 values were obtained by fitting data to a nonlinear curve-fitting program (GraphPad Software, Inc., La Jolla Calif.).", "units": {"IC50": "nM"}, "values": [
      {"compound": "O=C(Nc1ccc(Cl)cc1N1CCN(CCC(F)(F)F)CC1)c1ccc(CN(CCO)CCO)c(F)c1F", "note": "[Compound 178]", "IC50": 34.4},
      {"compound": "O=C(O)C[C@H]1CNCCN1Cc1ccc(C(=O)Nc2ccc(Cl)cc2N2CCN(CCC(F)(F)F)CC2)c(F)c1F", "note": "[Compound 231, (S)-2-(1-(4-(4-Chloro-2-(4-(3,3,3-trifluoropropyl)piperazin-1-yl)phenylcarbamoyl)-2,3-difluorobenzyl)piperazin-2-yl)acetic acid]", "IC50": 74.3}
    ]},
    {"target": "T2, rat Mas receptor (Rattus norvegicus, UniProt P12526)", "T2 construct": "expressed in transfected cells; host or cells: HEK293 (ATCC CRL-1573)", "T2 sequence (P12526 1-324)": "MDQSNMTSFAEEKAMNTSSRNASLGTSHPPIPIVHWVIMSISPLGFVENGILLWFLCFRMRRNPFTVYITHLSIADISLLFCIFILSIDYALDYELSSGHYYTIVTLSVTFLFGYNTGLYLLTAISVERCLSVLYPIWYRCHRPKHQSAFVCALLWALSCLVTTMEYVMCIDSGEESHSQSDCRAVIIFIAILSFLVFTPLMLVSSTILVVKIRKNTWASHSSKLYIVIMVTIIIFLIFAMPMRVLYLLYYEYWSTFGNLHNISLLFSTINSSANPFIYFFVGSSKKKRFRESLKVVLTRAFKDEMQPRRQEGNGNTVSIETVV", "assay": "HTRF IP1 assay, HEK293 cells expressing rat Mas receptor", "type": "cell-based", "conditions": "HTRF IP1 assay, rat Mas receptor (Table B.1); read-out: IC50", "description": "as §1", "units": {"IC50": "nM"}, "values": [
      {"compound": "O=C(Nc1ccc(Cl)cc1N1CCN(CCC(F)(F)F)CC1)c1ccc(CN2CCC(CO)CC2)cc1F", "note": "[Compound 54, N-(4-Chloro-2-(4-(3,3,3-trifluoropropyl)piperazin-1-yl)phenyl)-2-fluoro-4-((4-(hydroxymethyl)piperidin-1-yl)methyl)benzamide]", "IC50": 497},
      {"compound": "C[C@H](NCc1ccc(C(=O)Nc2ccc(Cl)cc2N2CCN(CCC(F)(F)F)CC2)c(F)c1)C(N)=O", "note": "[Compound 67, (S)-4-((1-Amino-1-oxopropan-2-ylamino)methyl)-N-(4-chloro-2-(4-(3,3,3-trifluoropropyl)piperazin-1-yl)phenyl)-2-fluorobenzamide]", "IC50": 82},
      {"compound": "O=C(Nc1ccc(Cl)cc1N1CCN(CCC(F)(F)F)CC1)c1ccc(CNC2CCCCNC2=O)cc1F", "note": "(centres unmarked) [Compound 79, N-(4-Chloro-2-(4-(3,3,3-trifluoropropyl)piperazin-1-yl)phenyl)-2-fluoro-4-((2-oxoazepan-3-ylamino)methyl)benzamide]", "IC50": 133},
      {"compound": "N[C@@H]1CCCN(Cc2ccc(C(=O)Nc3ccc(Cl)cc3N3CCN(CCC(F)(F)F)CC3)c(F)c2)C1", "note": "[Compound 90, (R)-4-((3-Aminopiperidin-1-yl)methyl)-N-(4-chloro-2-(4-(3,3,3-trifluoropropyl)piperazin-1-yl)phenyl)-2-fluorobenzamide]", "IC50": 704},
      {"compound": "O=C(Nc1ccc(Cl)cc1N1CCN(CCC(F)(F)F)CC1)c1ccc(CNC(CO)(CO)CO)cc1F", "note": "[Compound 103, N-(4-Chloro-2-(4-(3,3,3-trifluoropropyl)piperazin-1-yl)phenyl)-4-((1,3-dihydroxy-2-(hydroxymethyl)propan-2-ylamino)methyl)-2-fluorobenzamide]", "IC50": 535},
      {"compound": "CCN1CCCCC(NCc2ccc(C(=O)Nc3ccc(Cl)cc3N3CCN(CCC(F)(F)F)CC3)c(F)c2)C1=O", "note": "(centres unmarked) [Compound 117, N-(4-Chloro-2-(4-(3,3,3-trifluoropropyl)piperazin-1-yl)phenyl)-4-((1-ethyl-2-oxoazepan-3-ylamino)methyl)-2-fluorobenzamide]", "IC50": 373},
      {"compound": "C[C@@H](O)CNCc1ccc(C(=O)Nc2ccc(Cl)cc2N2CCN(CCC(F)(F)F)CC2)c(F)c1", "note": "[Compound 130, (R)—N-(4-Chloro-2-(4-(3,3,3-trifluoropropyl)piperazin-1-yl)phenyl)-2-fluoro-4-((2-hydroxypropylamino)methyl)benzamide]", "IC50": 252},
      {"compound": "O=C(Nc1ccc(Cl)cc1N1CCN(CCC(F)(F)F)CC1)c1ccc(CN(CCO)CCO)cc1F", "note": "[Compound 144]", "IC50": 108},
      {"compound": "O=C(Nc1ccc(Cl)cc1N1CCN(CCC(F)(F)F)CC1)c1ccc(CN2CCN3CCCC3C2)cc1F", "note": "(centres unmarked) [Compound 157, N-(4-Chloro-2-(4-(3,3,3-trifluoropropyl)piperazin-1-yl)phenyl)-2-fluoro-4-((hexahydropyrrolo[1,2-a]pyrazin-2(1H)-yl)methyl)benzamide]", "IC50": 184},
      {"compound": "O=C(Nc1ccc(Cl)cc1N1CCN(CCC(F)(F)F)CC1)c1ccc(CN2CCS(=O)(=O)CC2)c(F)c1F", "note": "[Compound 168, N-(4-Chloro-2-(4-(3,3,3-trifluoropropyl)piperazin-1-yl)phenyl)-2,3-difluoro-4-((1,1-dioxo-thiomorpholin-4-yl)methyl)benzamide]", "IC50": 27.2},
      {"compound": "O=C(Nc1ccc(Cl)cc1N1CCN(CCC(F)(F)F)CC1)c1ccc(CN(CCO)CCO)c(F)c1F", "note": "[Compound 178]", "IC50": 44.8},
      {"compound": "O=C1CN(Cc2ccc(C(=O)Nc3cc(Cl)c(Cl)cc3N3CCN(CCC(F)(F)F)CC3)c(F)c2F)CCN1", "note": "[Compound 188, N-(4,5-Dichloro-2-(4-(3,3,3-trifluoropropyl)piperazin-1-yl)phenyl)-2,3-difluoro-4-((3-oxopiperazin-1-yl)methyl)benzamide]", "IC50": 29},
      {"compound": "COC(=O)[C@H](CN)NCc1ccc(C(=O)Nc2ccc(Cl)cc2N2CCN(CCC(F)(F)F)CC2)c(F)c1", "note": "[Compound 198, (S)-Methyl 3-amino-2-(4-(4-chloro-2-(4-(3,3,3-trifluoropropyl)piperazin-1-yl)phenylcarbamoyl)-3-fluorobenzylamino)propanoate]", "IC50": 173},
      {"compound": "CN(CC(=O)O)Cc1ccc(C(=O)Nc2ccc(Cl)cc2N2CCN(CCC(F)(F)F)CC2)c(F)c1F", "note": "[Compound 210, 2-((4-(4-Chloro-2-(4-(3,3,3-trifluoropropyl)piperazin-1-yl)phenylcarbamoyl)-2,3-difluorobenzyl)(methyl)amino)acetic acid]", "IC50": 68},
      {"compound": "CC(C)(C)OC(=O)NCC[C@H](NCc1ccc(C(=O)Nc2ccc(Cl)cc2N2CCN(CCC(F)(F)F)CC2)c(F)c1F)C(=O)O", "note": "[Compound 221, (S)-4-(tert-Butoxycarbonylamino)-2-(4-(4-chloro-2-(4-(3,3,3-trifluoropropyl)piperazin-1-yl)phenylcarbamoyl)-2,3-difluorobenzylamino)butanoic acid]", "IC50": 157},
      {"compound": "O=C(O)C[C@H]1CNCCN1Cc1ccc(C(=O)Nc2ccc(Cl)cc2N2CCN(CCC(F)(F)F)CC2)c(F)c1F", "note": "[Compound 231, (S)-2-(1-(4-(4-Chloro-2-(4-(3,3,3-trifluoropropyl)piperazin-1-yl)phenylcarbamoyl)-2,3-difluorobenzyl)piperazin-2-yl)acetic acid]", "IC50": 50},
      {"compound": "C[C@@H](CO)NC(=O)C1CNCCN1Cc1ccc(C(=O)Nc2ccc(Cl)cc2N2CCN(CCC(F)(F)F)CC2)c(F)c1F", "note": "(stereo partly drawn) [Compound 242, 1-(4-(4-Chloro-2-(4-(3,3,3-trifluoropropyl)piperazin-1-yl)phenylcarbamoyl)-2,3-difluorobenzyl)-N—((S)-1-hydroxypropan-2-yl)piperazine-2-carboxamide]", "IC50": 315},
      {"compound": "O=C(Nc1ccc(Cl)cc1N1CCN(CCC(F)(F)F)CC1)c1ccc(CN2CCC[C@@H](CO)C2)c(F)c1F", "note": "[Compound 252, (R)—N-(4-Chloro-2-(4-(3,3,3-trifluoropropyl)piperazin-1-yl)phenyl)-2,3-difluoro-4-((3-(hydroxymethyl)piperidin-1-yl)methyl)benzamide]", "IC50": 115}
    ]}
  ]
}
